Target: T1, YAP-TEAD interaction (full length human TEAD1-Gal4 fusion, full length YAP mutant S127A, S397A) (UniProt P04386+P28347)
T1 construct: The TEAD1 construct was prepared by cloning the full length human TEAD1 cDNA; expressed in transfected cells; host or cells: HEK293 GripTite 293 MSR (Invitrogen R795-07), transiently transfected with pSG5_CMV plasmids
Test: Cell-based TEAD-GAL4 transactivation assay (luciferase reporter, HEK293)
Settings: HEK293 cells, compounds 0.1 μM to 30 μM, 24 h; for IC50: concentration that inhibited the luciferase activity by 50%
Experimental: To identify inhibitors of YAP-TEAD interaction, a transient transactivation assays was carried out into HEK293 cell line (HEK293 GripTite™ 293 MSR (Invitrogen R795-07)) using plasmids containing the full length TEAD1 sequences, the full length YAP mutant (S127A, S397A) and a luciferase gene reporter. All expression constructs were performed into pSG5 backbone plasmid in which the SV40 promoter was replaced by the CMV promoter. The TEAD1 construct was prepared by cloning the full length human TEAD1 cDNA in fusion with the Gal4 DNA Binding Domain (AA 1-148) into pSG5_CMV to create the TEAD1(FL)_hum_pSG5Gal4_CMV. The full length YAP mutant (S127A, S397A) was also cloned into pSG_5 CMV to create the YAP(FL)_hum_pSG5_[…]. The reporter plasmid GAL4(5×RE)_[…]_pGL3-Basic contains 5 copies of the GAL4 responsive element (5′-TCGGAGGACAGTACTCC-3′) upstream of the thymidine kinase (TK) promoter (−105/+56) inserted in a pGL3-Basic vector. To evaluate the selectivity of our compounds in blocking the YAP-TEAD interaction, a counter-screening protein-protein interaction transactivation assays was also established. Briefly, two other expression plasmids, the pBD-P53 which express the P53 (AA 72-390) in fusion with Gal4 and the pAD-SV40T which express the SV40 large T antigen (AA 84-708,AgT), were created. HEK293 cells were seeded at 5×10^4 cells/well in 96 well plates (assay plates) in DMEM medium containing 4.5 g/L D-glucose, 10% high inactivated (HI) fetal bovine serum 1% Glutamax, 1% non-essential amino acid and 1% sodium pyruvate and 0.5% penicillin/streptomycin 37° C. in a humidified atmosphere of 8% CO2. After 24 h, transfections are performed using Jet-PEI as transfectant (101B-010 Polyplus Transfection), according to the instructions of the manufacturer (N/P=10) and a ratio YAP/TEAD=10 (per well: 50 ng of YAP(FL), 5 ng of TEAD(FL) and 50 ng of reporter plasmid). Six hours after cell transfection, the plates (‘assay plate’) were washed with 100 μl PBS per well and cell were treated with compounds in semi-log from 0.1 μM to 30 μM or DMSO 0.5% as control in DMEM 4.5 g/L D-Glucose without phenol red, 0.3% BSA, 1% glutamax, 1% NEAA, 1% sodium pyruvate. Twenty-four hours later, the luciferase activity was determined after addition of 100 μl of Steady Glo™ luciferase assay system (Promega E2550) according to the manufacturer's directions. Luciferase activity in cell extracts is measured by reading luminescence using the Envision device.
The cellular response was determined by fitting the concentration response curves using a 3-parameter curve fit equation and determining the concentration that inhibited the luciferase activity by 50%.

T1 sequence (P04386+P28347 fused, stated change not applied): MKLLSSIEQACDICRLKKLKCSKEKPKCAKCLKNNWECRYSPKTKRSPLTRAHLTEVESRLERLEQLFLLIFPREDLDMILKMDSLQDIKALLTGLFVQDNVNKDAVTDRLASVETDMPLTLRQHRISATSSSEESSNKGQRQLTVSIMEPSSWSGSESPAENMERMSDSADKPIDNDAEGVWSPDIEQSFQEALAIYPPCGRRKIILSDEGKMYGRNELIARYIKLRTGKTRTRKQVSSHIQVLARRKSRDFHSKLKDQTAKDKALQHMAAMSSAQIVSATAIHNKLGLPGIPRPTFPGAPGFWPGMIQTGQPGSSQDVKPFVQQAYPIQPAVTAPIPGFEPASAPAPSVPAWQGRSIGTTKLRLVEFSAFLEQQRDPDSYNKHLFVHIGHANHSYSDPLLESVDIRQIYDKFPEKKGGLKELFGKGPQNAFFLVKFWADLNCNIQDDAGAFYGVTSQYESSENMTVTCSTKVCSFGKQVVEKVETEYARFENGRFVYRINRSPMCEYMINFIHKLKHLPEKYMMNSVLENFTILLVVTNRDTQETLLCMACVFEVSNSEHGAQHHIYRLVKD

Compound | IC50 | Max Act. (%), TEAD-GAL4 Transactivation activity (luciferase activity)
3,3-diethyl-5-[(E)-[isobutyl-(5-methoxy-1,1-dioxo-1,2-benzothiazol-3-yl)hydrazono]methyl]indolin-2-one [Ex 101] | 5.29 µM | 90%
CN(/N=C/c1cccc(OCCO)c1)C1=NS(=O)(=O)c2ccccc21 [Ex 2, 2-[3-[(E)-[(1,1-dioxo-1,2-benzothiazol-3-yl)-methyl-hydrazono]methyl]phenoxy]ethanol] | 1.11 µM | 
CN(/N=C/c1cccc(N(C)C)c1)C1=NS(=O)(=O)c2ccccc21 [Ex 4, N-[(E)-[3-(dimethylamino)phenyl]methyleneamino]-N-methyl-1,1-dioxo-1,2-benzothiazol-3-amine] | 11.9 µM | 
CN(/N=C/c1cnc(N2CCCC2)s1)C1=NS(=O)(=O)c2ccccc21 [Ex 6, N-methyl-1,1-dioxo-N-[(E)-(2-pyrrolidin-1-ylthiazol-5-yl)methyleneamino]-1,2-benzothiazol-3-amine] | 1.07 µM | 
CN(/N=C/c1cnc(-c2ccccc2)s1)C1=NS(=O)(=O)c2ccccc21 [Ex 8, N-methyl-1,1-dioxo-N-[(E)-(2-phenylthiazol-5-yl)methyleneamino]-1,2-benzothiazol-3-amine] | 5.19 µM | 
COc1cc(/C=N/N(CCc2ccccn2)C2=NS(=O)(=O)c3ccccc32)ccc1F [Ex 9, N-[(E)-(4-fluoro-3-methoxy-phenyl)methyleneamino]-1,1-dioxo-N-[2-(2-pyridyl)ethyl]-1,2-benzothiazol-3-amine] | 3.94 µM | 
CCOc1cc(/C=N/N(C)C2=NS(=O)(=O)c3ccccc32)ccc1F [Ex 11, N-[(E)-(3-ethoxy-4-fluoro-phenyl)methyleneamino]-N-methyl-1,1-dioxo-1,2-benzothiazol-3-amine] | 2.85 µM | 
CCCOc1cc(/C=N/N(C)C2=NS(=O)(=O)c3ccccc32)ccc1F [Ex 12, N-[(E)-(4-fluoro-3-propoxy-phenyl)methyleneamino]-N-methyl-1,1-dioxo-1,2-benzothiazol-3-amine] | 1.56 µM | 
CC(C)Oc1cc(/C=N/N(C)C2=NS(=O)(=O)c3ccccc32)ccc1F [Ex 13, N-[(E)-(4-fluoro-3-isopropoxy-phenyl)methyleneamino]-N-methyl-1,1-dioxo-1,2-benzothiazol-3-amine] | 3.35 µM | 
CN(/N=C/c1ccc(F)c(C(N)=O)c1)C1=NS(=O)(=O)c2ccccc21 [Ex 17, 5-[(E)-[(1,1-dioxo-1,2-benzothiazol-3-yl)-methyl-hydrazono]methyl]-2-fluoro-benzamide] | 2.75 µM | 
CC(C)n1c(=O)[nH]c2ccc(/C=N/N(C)C3=NS(=O)(=O)c4ccccc43)cc21 [Ex 26, 5-[(E)-[(1,1-dioxo-1,2-benzothiazol-3-yl)-methyl-hydrazono]methyl]-3-isopropyl-1H-benzimidazol-2-one] | 0.62 µM | 
CN(/N=C/c1ccc2[nH]c(=O)n(C3CC3)c2c1)C1=NS(=O)(=O)c2ccccc21 [Ex 27, 3-cyclopropyl-5-[(E)-[(1,1-dioxo-1,2-benzothiazol-3-yl)-methyl-hydrazono]methyl]-1H-benzimidazol-2-one] | 2.92 µM | 
COc1cc(/C=N/N(CC(C)C)C2=NS(=O)(=O)c3ccccc32)ccc1F [Ex 40, N-[(E)-(4-fluoro-3-methoxy-phenyl)methyleneamino]-N-isobutyl-1,1-dioxo-1,2-benzothiazol-3-amine] | 5.33 µM | 
CCOCCN(/N=C/c1ccc(F)c(OC)c1)C1=NS(=O)(=O)c2ccccc21 [Ex 43, N-(2-ethoxyethyl)-N-[(E)-(4-fluoro-3-methoxy-phenyl)methyleneamino]-1,1-dioxo-1,2-benzothiazol-3-amine] | 2.78 µM | 
COc1cc(/C=N/N(C)C2=NS(=O)(=O)c3ccc([N+](=O)[O-])cc32)ccc1F [Ex 47, N-[(E)-(4-fluoro-3-methoxy-phenyl)methyleneamino]-N-methyl-5-nitro-1,1-dioxo-1,2-benzothiazol-3-amine] | 3.4 µM | 
COc1cc(/C=N/N(C)C2=NS(=O)(=O)c3cc(N)ccc32)ccc1F [Ex 49, N3-[(E)-(4-fluoro-3-methoxy-phenyl)methyleneamino]-N3-methyl-1,1-dioxo-1,2-benzothiazole-3,6-diamine] | 3.11 µM | 
COc1cc(/C=N/N(C)C2=NS(=O)(=O)c3ccc(OCCN(C)C)cc32)ccc1F [Ex 57, 5-[2-(dimethylamino)ethoxy]-N-[(E)-(4-fluoro-3-methoxy-phenyl)methyleneamino]-N-methyl-1,1-dioxo-1,2-benzothiazol-3-amine] | 0.53 µM | 
COc1cc(/C=N/N(C)C2=NS(=O)(=O)c3ccc(OCC(=O)N(C)C)cc32)ccc1F [Ex 58, 2-[[3-[[(E)-(4-fluoro-3-methoxy-phenyl)methyleneamino]-methyl-amino]-1,1-dioxo-1,2-benzothiazol-5-yl]oxy]-N,N-dimethyl-acetamide] | 3.42 µM | 
COc1cc(/C=N/N(C)C2=NS(=O)(=O)c3cc(B4OCC(C)(C)CO4)ccc32)ccc1F [Ex 59, 6-(5,5-dimethyl-1,3,2-dioxaborinan-2-yl)-N-[(E)-(4-fluoro-3-methoxy-phenyl)methyleneamino]-N-methyl-1,1-dioxo-1,2-benzothiazol-3-amine] | 3.55 µM | 
CCN(/N=C/c1ccc(F)c(OC)c1)C1=NS(=O)(=O)c2cc(B(O)O)ccc21 [Ex 62, [3-[ethyl-[(E)-(4-fluoro-3-methoxy-phenyl)methyleneamino]amino]-1,1-dioxo-1,2-benzothiazol-6-yl]boronic acid] | 1.98 µM | 
COc1cc(/C=N/N(CC(C)C)C2=NS(=O)(=O)c3cc(B(O)O)ccc32)ccc1F [Ex 63, [3-[[(E)-(4-fluoro-3-methoxy-phenyl)methyleneamino]-isobutyl-amino]-1,1-dioxo-1,2-benzothiazol-6-yl]boronic acid] | 1.08 µM | 
CC(C)CN(/N=C/c1ccc2[nH]c(=O)n(C)c2c1)C1=NS(=O)(=O)c2cc(B(O)O)ccc21 [Ex 65, [3-[isobutyl-[(E)-(3-methyl-2-oxo-1H-benzimidazol-5-yl)methyleneamino]amino]-1,1-dioxo-1,2-benzothiazol-6-yl]boronic acid] | 4.04 µM | 
COc1cc(/C=N/N(CC(C)C)C2=NS(=O)(=O)c3cc(B4OC(=O)CN(C)CC(=O)O4)ccc32)ccc1F [Ex 69, 2-[3-[[(E)-(4-fluoro-3-methoxy-phenyl)methyleneamino]-isobutyl-amino]-1,1-dioxo-1,2-benzothiazol-6-yl]-6-methyl-1,3,6,2-dioxazaborocane-4,8-dione] | 1.04 µM | 
Cc1ccc2c(c1)C(N(C)/N=C/c1ccc3[nH]c(=O)n(C)c3c1)=NS2(=O)=O [Ex 70, 3-methyl-5-[(E)-[methyl-(5-methyl-1,1-dioxo-1,2-benzothiazol-3-yl) hydrazono]methyl]-1H-benzimidazol-2-one] | 1.58 µM | 
COc1cc(/C=N/N(CC2CCC2)C2=NS(=O)(=O)c3cc(B(O)O)ccc32)ccc1F [Ex 80, [3-[cyclobutylmethyl-[(E)-(4-fluoro-3-methoxy-phenyl)methyleneamino]amino]-1,1-dioxo-1,2-benzothiazol-6-yl]boronic acid] | 1.07 µM | 
CCn1c(=O)[nH]c2ccc(/C=N/N(CC(C)C)C3=NS(=O)(=O)c4cc(B(O)O)ccc43)cc21 [Ex 84, [3-[[(E)-(3-ethyl-2-oxo-1H-benzimidazol-5-yl)methyleneamino]-isobutyl-amino]-1,1-dioxo-1,2-benzothiazol-6-yl]boronic acid] | 1.67 µM | 
CSc1cc(/C=N/N(C)C2=NS(=O)(=O)c3ccccc32)ccc1F [Ex 86, N-[(E)-(4-fluoro-3-methylsulfanyl-phenyl)methyleneamino]-N-methyl-1,1-dioxo-1,2-benzothiazol-3-amine] | 1.31 µM | 
COc1cc(/C=N/N(CC(C)C)C2=NS(=O)(=O)c3cc(OCB(O)O)ccc32)ccc1F [Ex 92, [3-[[(E)-(4-fluoro-3-methoxy-phenyl)methyleneamino]-isobutyl-amino]-1,1-dioxo-1,2-benzothiazol-6-yl]oxymethylboronic acid] | 0.86 µM | 

— patent US20200115353A1, “NEW COMPOUNDS INHIBITORS OF THE YAP/TAZ-TEAD INTERACTION AND THEIR USE IN THE TREATMENT OF MALIGNANT MESOTHELIOMA” (INVENTIVA, priority 2017, published 2020)
